Laboratory results taken from patent US8697632B2 (priority 2008, dated 2014).
Where “and” joins values, the source holds several entries; their conditions need not be identical. Equal entries are not always repeated. Each block holds one compound with its values, some of them ahead of it. Peptide text beside a SMILES is read from it.

Tests used:
[1] = biological target: T1, insulin receptor (Homo sapiens, UniProt P06213); assay: Insulin receptor competition binding assay (scintillation proximity); details: Table 9; for Ratio: IGF-1 receptor vs insulin receptor binding
T1 construct: expressed in transfected cells; plasma membrane fragments
T1 sequence (P06213 28-758 limits assumed): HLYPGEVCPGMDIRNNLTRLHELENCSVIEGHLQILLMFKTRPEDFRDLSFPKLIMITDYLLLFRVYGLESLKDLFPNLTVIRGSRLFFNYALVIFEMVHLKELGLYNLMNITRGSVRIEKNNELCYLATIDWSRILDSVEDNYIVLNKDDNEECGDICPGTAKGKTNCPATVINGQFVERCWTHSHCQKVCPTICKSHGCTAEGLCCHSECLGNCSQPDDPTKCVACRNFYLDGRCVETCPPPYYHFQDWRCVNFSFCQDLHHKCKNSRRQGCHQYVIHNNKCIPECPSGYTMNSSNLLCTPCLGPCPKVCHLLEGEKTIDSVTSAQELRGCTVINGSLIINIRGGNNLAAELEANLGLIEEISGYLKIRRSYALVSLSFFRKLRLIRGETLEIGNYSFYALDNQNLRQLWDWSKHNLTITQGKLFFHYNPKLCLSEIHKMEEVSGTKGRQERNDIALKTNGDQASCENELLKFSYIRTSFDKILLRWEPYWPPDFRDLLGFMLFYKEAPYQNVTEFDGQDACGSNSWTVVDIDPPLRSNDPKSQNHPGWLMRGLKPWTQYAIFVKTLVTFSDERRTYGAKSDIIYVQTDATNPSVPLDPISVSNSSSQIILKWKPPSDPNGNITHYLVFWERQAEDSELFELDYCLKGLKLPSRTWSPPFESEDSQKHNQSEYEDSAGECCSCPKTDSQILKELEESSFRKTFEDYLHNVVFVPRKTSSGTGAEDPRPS
T1 sequence (P06213 763-1382 limits assumed): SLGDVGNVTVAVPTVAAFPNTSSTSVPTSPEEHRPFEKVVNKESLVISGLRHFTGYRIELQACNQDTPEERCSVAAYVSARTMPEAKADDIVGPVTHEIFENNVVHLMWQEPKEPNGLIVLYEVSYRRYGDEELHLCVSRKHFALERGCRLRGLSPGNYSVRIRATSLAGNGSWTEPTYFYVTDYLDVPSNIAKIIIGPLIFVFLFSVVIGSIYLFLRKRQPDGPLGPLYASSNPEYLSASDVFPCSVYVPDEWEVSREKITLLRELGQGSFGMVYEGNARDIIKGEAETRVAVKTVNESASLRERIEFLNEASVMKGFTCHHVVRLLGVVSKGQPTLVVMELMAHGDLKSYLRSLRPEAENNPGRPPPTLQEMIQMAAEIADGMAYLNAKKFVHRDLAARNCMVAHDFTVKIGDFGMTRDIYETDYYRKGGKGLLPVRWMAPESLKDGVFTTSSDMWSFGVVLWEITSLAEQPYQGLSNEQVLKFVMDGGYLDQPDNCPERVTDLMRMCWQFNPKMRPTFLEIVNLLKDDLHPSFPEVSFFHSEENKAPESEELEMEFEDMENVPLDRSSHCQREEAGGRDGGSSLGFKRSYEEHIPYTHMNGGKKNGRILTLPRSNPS

[2] = Dipeptide cleavage from prodrug forms of IGF1 peptides in PBS; assay type: physicochemical; details: pH 7.4 at 37° C.
[3] = Rate of model dipeptide cleavage in PBS (model hexapeptide); details: Table 2, dipeptide on side chain of N-terminal para-amino-Phe of HSRGTF-NH2
Procedure: The rate of cleavage was determined for the respective propeptides. The concentrations of the propeptides and the model parent peptide were determined by their respective peak areas. […] The slope of this plot provides the rate constant ‘k’.

[4] = biological target: T2, IGF-1 receptor (Homo sapiens, UniProt P08069); assay: IGF-1 receptor competition binding assay (scintillation proximity); details: Table 9
T2 construct: expressed in transfected cells; plasma membrane fragments
T2 sequence (P08069 31-736 limits assumed): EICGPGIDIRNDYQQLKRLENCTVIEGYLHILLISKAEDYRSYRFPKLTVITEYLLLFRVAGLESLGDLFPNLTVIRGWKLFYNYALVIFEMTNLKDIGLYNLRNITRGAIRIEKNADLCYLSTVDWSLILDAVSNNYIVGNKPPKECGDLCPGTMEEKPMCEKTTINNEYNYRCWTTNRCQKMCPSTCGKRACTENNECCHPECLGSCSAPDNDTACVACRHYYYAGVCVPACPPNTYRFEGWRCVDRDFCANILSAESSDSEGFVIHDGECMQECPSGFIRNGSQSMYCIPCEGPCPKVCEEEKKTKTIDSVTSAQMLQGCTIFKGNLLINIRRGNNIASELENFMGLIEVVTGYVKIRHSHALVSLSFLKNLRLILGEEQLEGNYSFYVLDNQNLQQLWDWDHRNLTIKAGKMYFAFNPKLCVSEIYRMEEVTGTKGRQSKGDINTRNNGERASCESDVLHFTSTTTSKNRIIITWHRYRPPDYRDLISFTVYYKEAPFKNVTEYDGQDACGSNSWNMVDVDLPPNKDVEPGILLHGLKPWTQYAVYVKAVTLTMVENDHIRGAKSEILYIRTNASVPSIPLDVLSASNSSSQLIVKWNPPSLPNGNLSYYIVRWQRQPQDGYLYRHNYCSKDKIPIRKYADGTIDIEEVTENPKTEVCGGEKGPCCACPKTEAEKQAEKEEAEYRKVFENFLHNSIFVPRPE
T2 sequence (P08069 741-1367 limits assumed): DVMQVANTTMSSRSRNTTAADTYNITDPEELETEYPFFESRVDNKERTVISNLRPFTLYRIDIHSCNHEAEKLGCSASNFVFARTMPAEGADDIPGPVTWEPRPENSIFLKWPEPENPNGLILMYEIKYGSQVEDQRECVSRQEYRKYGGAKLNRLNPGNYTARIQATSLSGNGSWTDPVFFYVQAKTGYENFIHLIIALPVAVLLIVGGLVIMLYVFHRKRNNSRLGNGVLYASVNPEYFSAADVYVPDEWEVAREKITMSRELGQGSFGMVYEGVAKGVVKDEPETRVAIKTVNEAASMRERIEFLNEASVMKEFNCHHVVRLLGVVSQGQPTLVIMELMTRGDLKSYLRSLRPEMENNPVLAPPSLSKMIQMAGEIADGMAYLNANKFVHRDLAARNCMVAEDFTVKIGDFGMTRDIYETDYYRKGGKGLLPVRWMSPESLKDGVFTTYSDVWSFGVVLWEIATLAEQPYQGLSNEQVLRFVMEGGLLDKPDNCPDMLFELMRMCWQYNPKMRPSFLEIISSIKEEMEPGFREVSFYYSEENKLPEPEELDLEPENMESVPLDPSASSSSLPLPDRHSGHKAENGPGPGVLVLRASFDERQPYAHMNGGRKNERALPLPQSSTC

[5] = cited from earlier work
[6] = cited from earlier work; remark: listed apart in the source
[7] = in vivo; cited from earlier work

Ratio [1]: 82.6
Compound: CC[C@H](C)[C@H](NC(=O)CN)C(=O)N[C@H](C(=O)N[C@@H](CC(=O)O)C(=O)N[C@@H](CCC(=O)O)C(=O)N[C@H]1CSSC[C@@H]2NC(=O)[C@H](CO)NC(=O)[C@H](CCCNC(=N)N)NC(=O)[C@H](Cc3ccccc3)NC(=O)[C@H](CSSC[C@H](NC(=O)[C@H](CC(C)C)NC(=O)[C@@H](NC(=O)[C@H](CCC(=O)O)NC(=O)[C@@H]3CCCN3C(=O)CN)[C@@H](C)O)C(=O)NCC(=O)N[C@@H](CO)C(=O)N[C@@H](Cc3c[nH]cn3)C(=O)N[C@@H](CC(C)C)C(=O)N[C@@H](C(C)C)C(=O)N[C@@H](CCC(=O)O)C(=O)N[C@@H](C)C(=O)N[C@@H](CC(C)C)C(=O)N[C@@H](Cc3ccc(O)cc3)C(=O)N[C@@H](CC(C)C)C(=O)N[C@@H](C(C)C)C(=O)N[C@H](C(=O)NCC(=O)N[C@@H](CC(=O)O)C(=O)N[C@@H](CCCNC(=N)N)C(=O)NCC(=O)N[C@@H](Cc3ccccc3)C(=O)N[C@@H](Cc3ccc(O)cc3)C(=O)N[C@@H](Cc3ccccc3)C(=O)N[C@@H](CC(N)=O)C(=O)N[C@@H](CCCCN)C(=O)N3CCC[C@H]3C(=O)N[C@H](C(N)=O)[C@@H](C)O)CSSC[C@@H](C(=O)N[C@@H](C)C(N)=O)NC(=O)[C@H](Cc3ccc(O)cc3)NC(=O)[C@H](CCSC)NC(=O)[C@H](CCC(=O)O)NC(=O)[C@H](CC(C)C)NC(=O)[C@H](CCCNC(=N)N)NC(=O)[C@H](CCCNC(=N)N)NC(=O)[C@H](CC(C)C)NC(=O)[C@H](CC(=O)O)NC2=O)NC1=O)C(C)C

Compound: CC[C@H](C)[C@H](NC(=O)CN)C(=O)N[C@H](C(=O)N[C@@H](CC(=O)O)C(=O)N[C@@H](CCC(=O)O)C(=O)N[C@@H](C)C(=O)N[C@@H](C)C(=O)N[C@@H](Cc1ccccc1)C(=O)N[C@@H](CCCNC(=N)N)C(=O)N[C@@H](CO)C(=O)N[C@@H](C)C(=O)N[C@@H](CC(=O)O)C(=O)N[C@@H](CC(C)C)C(=O)N[C@@H](CCCNC(=N)N)C(=O)N[C@@H](CCCNC(=N)N)C(=O)N[C@@H](CC(C)C)C(=O)N[C@@H](CCC(=O)O)C(=O)N[C@@H](CCSC)C(=O)N[C@@H](Cc1ccc(NC(=O)[C@@H]2CCCN2C(=O)C(C)(C)N)cc1)C(=O)N[C@@H](C)C(=O)N[C@@H](C)C(N)=O)C(C)C [AiB Pro] (HELM PEPTIDE1{G.I.V.D.E.A.A.F.R.S.A.D.L.R.R.L.E.M.[O=C([C@H](Cc1ccc(N[*:3])cc1)N[*:1])[*:2]].A.A.[am]}|PEPTIDE2{[Aib].P}$PEPTIDE1,PEPTIDE2,19:R3-2:R2$$$V2.0)
dipeptide cleavage / conversion to active form (in words) [2]: spontaneous, non-enzymatic conversion

Compound: C[C@@H](O)[C@H](NC(=O)CNC(=O)[C@H](CCCNC(=N)N)NC(=O)[C@H](CO)NC(=O)[C@H](Cc1c[nH]cn1)NC(=O)[C@@H](N)Cc1ccc(NC(=O)CNC(=O)CN)cc1)C(=O)N[C@@H](Cc1ccccc1)C(N)=O [Compound 18]
t1/2 (result in words) [3]: No cleavage

Compound: C[C@@H](O)[C@H](NC(=O)CNC(=O)[C@H](CCCNC(=N)N)NC(=O)[C@H](CO)NC(=O)[C@H](Cc1c[nH]cn1)NC(=O)[C@@H](N)Cc1ccc(NC(=O)CNC(=O)CO)cc1)C(=O)N[C@@H](Cc1ccccc1)C(N)=O [Compound 19]
t1/2 (result in words) [3]: No cleavage

IC50 ([1]; read-out: Insulin Receptor nM IC50:): 0.25 nM
Compound: CC[C@H](C)[C@H](NC(=O)CN)C(=O)N[C@H](C(=O)N[C@@H](CC(=O)O)C(=O)N[C@@H](CCC(=O)O)C(=O)N[C@H]1CSSC[C@@H]2NC(=O)[C@H](CO)NC(=O)[C@H](CCCNC(=N)N)NC(=O)[C@H](Cc3ccccc3)NC(=O)[C@H](CSSC[C@H](NC(=O)[C@H](CC(C)C)NC(=O)[C@H](Cc3c[nH]cn3)NC(=O)[C@H](CCC(=O)O)NC(=O)[C@@H]3CCCN3C(=O)CN)C(=O)NCC(=O)N[C@@H](C)C(=O)N[C@@H](CC(=O)O)C(=O)N[C@@H](CC(C)C)C(=O)N[C@@H](C(C)C)C(=O)N[C@@H](CC(=O)O)C(=O)N[C@@H](C)C(=O)N[C@@H](CC(C)C)C(=O)N[C@@H](Cc3ccc(O)cc3)C(=O)N[C@@H](CC(C)C)C(=O)N[C@@H](C(C)C)C(=O)N[C@H](C(=O)NCC(=O)N[C@@H](CC(=O)O)C(=O)N[C@@H](CCCNC(=N)N)C(=O)NCC(=O)N[C@@H](Cc3ccccc3)C(=O)N[C@@H](Cc3ccc(O)cc3)C(N)=O)CSSC[C@@H](C(=O)N[C@@H](C)C(N)=O)NC(=O)[C@H](Cc3ccc(O)cc3)NC(=O)[C@H](CC[S+](C)[O-])NC(=O)[C@H](CCC(=O)O)NC(=O)[C@H](CC(C)C)NC(=O)[C@H](CCCNC(=N)N)NC(=O)[C@H](CCCNC(=N)N)NC(=O)[C@H](CC(C)C)NC(=O)[C@H](CC(=O)O)NC2=O)NC1=O)C(C)C (stereo partly shown) [IGF-1 A:B (H5D10Y16L17) (S═O)DPI]

Compound: CC[C@H](C)[C@H](NC(=O)CN)C(=O)N[C@H](C(=O)N[C@@H](CC(=O)O)C(=O)N[C@@H](CCC(=O)O)C(=O)N[C@H]1CSSC[C@@H]2NC(=O)[C@H](CO)NC(=O)[C@H](CCCNC(=N)N)NC(=O)[C@H](Cc3ccccc3)NC(=O)[C@H](CSSC[C@H](NC(=O)[C@H](CC(C)C)NC(=O)[C@@H](NC(=O)[C@H](CCC(=O)O)NC(=O)[C@@H]3CCCN3C(=O)CN)[C@@H](C)O)C(=O)NCC(=O)N[C@@H](C)C(=O)N[C@@H](CCC(=O)O)C(=O)N[C@@H](CC(C)C)C(=O)N[C@@H](C(C)C)C(=O)N[C@@H](CC(=O)O)C(=O)N[C@@H](C)C(=O)N[C@@H](CC(C)C)C(=O)N[C@@H](Cc3ccc(O)cc3)C(=O)N[C@@H](CC(C)C)C(=O)N[C@@H](C(C)C)C(=O)N[C@H](C(=O)NCC(=O)N[C@@H](CC(=O)O)C(=O)N[C@@H](CCCNC(=N)N)C(=O)NCC(=O)N[C@@H](Cc3ccccc3)C(=O)N[C@@H](Cc3ccc(O)cc3)C(=O)N[C@@H](Cc3ccccc3)C(=O)N[C@@H](CC(N)=O)C(=O)N[C@@H](CCCCN)C(=O)N3CCC[C@H]3C(=O)N[C@H](C(N)=O)[C@@H](C)O)CSSC[C@@H](C(=O)N[C@@H](C)C(N)=O)NC(=O)[C@H](Cc3ccc(O)cc3)NC(=O)[C@H](CCSC)NC(=O)[C@H](CCC(=O)O)NC(=O)[C@H](CC(C)C)NC(=O)[C@H](CCCNC(=N)N)NC(=O)[C@H](CCCNC(=N)N)NC(=O)[C@H](CC(C)C)NC(=O)[C@H](CC(=O)O)NC2=O)NC1=O)C(C)C [IGF-1 A:B(E10Y16L17)]
IC50 ([4]; IGF-1 Receptor IC50:): 12.2 nM

Insulin Receptor % insulin (in test) [1]: 14.0% and 11.3% and 20.1%
Ratio [1]: 22.6
Insulin Receptor % native insulin activity (0.6 nM) ([1]; relative to 0.6 nM): 21.7% and 22.5% and 24.2%
IGF-1 Receptor % IGF-1 (in test) [4]: 0.9%
Compound: CC[C@H](C)[C@H](NC(=O)CN)C(=O)N[C@H](C(=O)N[C@@H](CC(=O)O)C(=O)N[C@@H](CCC(=O)O)C(=O)N[C@H]1CSSC[C@@H]2NC(=O)[C@H](CO)NC(=O)[C@H](CCCNC(=N)N)NC(=O)[C@H](Cc3ccccc3)NC(=O)[C@H](CSSC[C@H](NC(=O)[C@H](CC(C)C)NC(=O)[C@H](Cc3c[nH]cn3)NC(=O)[C@H](CCC(N)=O)NC(=O)[C@H](CC(N)=O)NC(=O)[C@@H](NC(=O)[C@@H](N)Cc3ccccc3)C(C)C)C(=O)NCC(=O)N[C@@H](CO)C(=O)N[C@@H](Cc3c[nH]cn3)C(=O)N[C@@H](CC(C)C)C(=O)N[C@@H](C(C)C)C(=O)N[C@@H](CCC(=O)O)C(=O)N[C@@H](C)C(=O)N[C@@H](CC(C)C)C(=O)N[C@@H](Cc3ccc(O)cc3)C(=O)N[C@@H](CC(C)C)C(=O)N[C@@H](C(C)C)C(=O)N[C@H](C(=O)NCC(=O)N[C@@H](CC(=O)O)C(=O)N[C@@H](CCCNC(=N)N)C(=O)NCC(=O)N[C@@H](Cc3ccccc3)C(=O)N[C@@H](Cc3ccc(O)cc3)C(=O)N[C@@H](Cc3ccccc3)C(=O)N[C@@H](CC(N)=O)C(=O)N[C@@H](CCCCN)C(=O)N3CCC[C@H]3C(=O)N[C@H](C(N)=O)[C@@H](C)O)CSSC[C@@H](C(=O)N[C@@H](C)C(N)=O)NC(=O)[C@H](Cc3ccc(O)cc3)NC(=O)[C@H](CCSC)NC(=O)[C@H](CCC(=O)O)NC(=O)[C@H](CC(C)C)NC(=O)[C@H](CCCNC(=N)N)NC(=O)[C@H](CCCNC(=N)N)NC(=O)[C@H](CC(C)C)NC(=O)[C@H](CC(=O)O)NC2=O)NC1=O)C(C)C [IGF-1 A:In (1-17)-IGF-1 B (18-30)]

Compound: [GlyA21, ArgB31, ArgB32]insulin
IGF-1 affinity (in words) [5]: enhanced IGF-1 affinity

Compound: [LysB29-tetradecanoyl, des(B30)]insulin
potency in vivo (in words) [6]: reduced potency in vivo
plasma half life (in words) [7]: increased plasma half life
